Results taken from patent US20240010640A1, “ANTAGONISTS OF THE MUSCARINIC ACETYLCHOLINE RECEPTOR M4” (Vanderbilt University, priority 2020, published 2024).

Target: T1, Human M4 (Homo sapiens, UniProt P08173)
T1 construct: Human or rat M4 cDNA, along with the chimeric G protein Gqi5, were transfected into Chinese hamster ovary (CHO-K1) cells; expressed in transfected cells; host or cells: CHO-K1 (Chinese hamster ovary, ATCC), stably expressing M4 and Gqi5
T1 sequence (P08173 1-479): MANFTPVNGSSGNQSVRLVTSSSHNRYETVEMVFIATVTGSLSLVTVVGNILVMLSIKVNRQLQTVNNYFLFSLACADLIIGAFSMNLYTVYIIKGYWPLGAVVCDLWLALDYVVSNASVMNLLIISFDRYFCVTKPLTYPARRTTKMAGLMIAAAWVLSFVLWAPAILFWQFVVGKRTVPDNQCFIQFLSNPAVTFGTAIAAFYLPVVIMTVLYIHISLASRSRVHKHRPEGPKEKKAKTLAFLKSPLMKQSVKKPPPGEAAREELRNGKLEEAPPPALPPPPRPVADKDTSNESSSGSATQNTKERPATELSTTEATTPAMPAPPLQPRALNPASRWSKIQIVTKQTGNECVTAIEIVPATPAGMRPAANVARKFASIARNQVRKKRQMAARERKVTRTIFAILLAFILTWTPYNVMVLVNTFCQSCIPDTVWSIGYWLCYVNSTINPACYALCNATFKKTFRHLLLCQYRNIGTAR
Assay: mAChR M4 cell-based functional assay (calcium flux, antagonist mode)
Conditions: for IC50: Human M4/Gqi5 CHO-K1 cells, decrease of acetylcholine response; for Emin (% ACh maximum at 30 μM): Human M4
Procedure: Human or rat M4 cDNA, along with the chimeric G protein Gqi5, were transfected into Chinese hamster ovary (CHO-K1) cells purchased from the American Type Culture Collection using Lipofectamine2000. M4/Gqi5/CHO cells were grown in Ham's F-12 medium containing 10% heat-inactivated fetal bovine serum (FBS), 20 mM HEPES, 500 μg/mL G418 sulfate, and 200 μg/mL Hygromycin B.
For high throughput measurement of agonist-evoked increases in intracellular calcium, CHO-K1 cells stably expressing muscarinic receptors were plated in growth medium lacking G418 and hygromycin at 15,000 cells/20 μL/well in Greiner 384-well black-walled, tissue culture (TC)-treated, clear-bottom plates (VWR). Cells were incubated overnight at 37° C. and 5% CO2. The next day, cells were washed using an ELX 405 (BioTek) with assay buffer; the final volume was then aspirated to 20 μL. Next, 20 μL of a 2.3 μM stock of Fluo-4/acetoxymethyl ester (Invitrogen, Carlsbad, CA), prepared as a 2.3 mM stock in DMSO and mixed in a 1:1 ratio with 10% (w/v) Pluronic F-127 and diluted in assay buffer, was added to the wells and the cell plates were incubated for 50 min at 37° C. and 5% CO2. Dye was removed by washing with the ELX 405 and the final volume was aspirated to 20 μL. Compound master plates were formatted in a 10 point concentration-response curve (CRC) format (1:3 dilutions) in 100% DMSO with a starting concentration of 10 or 1 mM using a BRAVO liquid handler (Agilent). Test compound CRCs were then transferred to daughter plates (240 nL) using the Echo acoustic plate reformatter (Labcyte, Sunnyvale, CA) and then diluted into assay buffer (40 μL) to a 2× stock using a Thermo Fisher Combi (Thermo Fisher Scientific, Waltham, MA).
Calcium flux was measured using the Functional Drug Screening System (FDSS) 6000 or 7000 (Hamamatsu Corporation, Tokyo, Japan) as an increase in the fluorescent static ratio. Compounds were applied to cells (20 μL, 2×) using the automated system of the FDSS at 2 seconds into the protocol and the data were collected at 1 Hz. At 143 s, 10 μL of an EC20 concentration of the muscarinic receptor agonist acetylcholine was added (5×), followed by the addition of 12 μL of an […] concentration of acetylcholine at the 268 s time point (5×). Agonist activity was analyzed as a concentration-dependent increase in calcium mobilization upon compound addition. Positive allosteric modulator activity was analyzed as a concentration-dependent increase in the EC20 acetylcholine response. Antagonist activity was analyzed as a concentration-dependent decrease in the EC80 acetylcholine response; for the purposes of the tables herein, an IC50 (inhibitory concentration 50) was calculated as a concentration-dependent decrease of the response elicited by an […] concentration of acetylcholine. Concentration-response curves were generated using a four-parameter logistical equation in XLFit curve fitting software (IDBS, Bridgewater, NJ) for Excel (Microsoft, Redmond, WA) or Prism (GraphPad Software, Inc., San Diego, CA) or the Dotmatics software platform (Dotmatics, Bishop's Stortford, UK).
Compounds were synthesized as described above. Activity (IC50 and Emin) was determined in the mAChR M4 cell-based functional assay as described above and the data are shown in Table 1.

Row | Compound | IC50 [nM] | Emin (% ACh maximum at 30 μM) [%]
1 | Cn1cc(-c2ccc(N[C@H]3C[C@@H]4CN(CC5CCOCC5)C[C@@H]4C3)nn2)cnc1=O [A7, 1-methyl-5-(6-(((3aR,5s,6aS)-2-((tetrahydro-2H-pyran-4-yl)methyl)octahydrocyclopenta[c]pyrrol-5-yl)amino)pyridazin-3-yl)pyrimidin-2(1H)-one] | 514 | 7
2 | O=c1ccc(-c2ccc(N[C@H]3C[C@@H]4CN(CC5CCOCC5)C[C@@H]4C3)nn2)cn1C(F)F [A5, 1-(difluoromethyl)-5-(6-(((3aR,5s,6aS)-2-((tetrahydro-2H-pyran-4-yl)methyl)octahydrocyclopenta[c]pyrrol-5-yl)amino)pyridazin-3-yl)pyridin-2(1H)-one] | 3.8 | 4
3 | Cn1cccc(-c2cnc(N[C@H]3C[C@@H]4CN(CC5CCOCC5)C[C@@H]4C3)nc2)c1=O [B1, 1-methyl-3-(2-(((3aR,5s,6aS)-2-((tetrahydro-2H-pyran-4-yl)methyl)octahydrocyclopenta[c]pyrrol-5-yl)amino)pyrimidin-5-yl)pyridin-2(1H)-one] | 3370 | 10
4 | Cn1cccc(-c2ccc(N[C@H]3C[C@@H]4CN(CC5CCOCC5)C[C@@H]4C3)nn2)c1=O [A4, 1-methyl-3-(6-(((3aR,5s,6aS)-2-((tetrahydro-2H-pyran-4-yl)methyl)octahydrocyclopenta[c]pyrrol-5-yl)amino)pyridazin-3-yl)pyridin-2(1H)-one] | 15.5 | 5
5 | Cn1cc(-c2ccc(N[C@H]3C[C@@H]4CN(CC5CCCOC5)C[C@@H]4C3)nn2)ccc1=O (stereo partly drawn) [A10, 1-methyl-5-(6-(((3aR,5s,6aS)-2-((tetrahydro-2H-pyran-3-yl)methyl)octahydrocyclopenta[c]pyrrol-5-yl)amino)pyridazin-3-yl)pyridin-2(1H)-one] | 129 | 4
6 | Cn1cc(-c2ccc(N[C@H]3C[C@@H]4CN(CCC(C)(C)C)C[C@@H]4C3)nn2)ccc1=O [A13, 5-(6-(((3aR,5s,6aS)-2-(3,3-dimethylbutyl)octahydrocyclopenta[c]pyrrol-5-yl)amino)pyridazin-3-yl)-1-methylpyridin-2(1H)-one] | 1 | 3
7 | O=c1ccc(-c2ccc(N[C@H]3C[C@@H]4CN(CC5CCOCC5)C[C@@H]4C3)nn2)cn1CC1CC1 [A15, 1-(cyclopropylmethyl)-5-(6-(((3aR,5s,6aS)-2-((tetrahydro-2H-pyran-4-yl)methyl)octahydrocyclopenta[c]pyrrol-5-yl)amino)pyridazin-3-yl)pyridin-2(1H)-one] | 19.6 | 4
8 | Cn1cc(C(F)(F)F)cc(-c2ccc(N[C@H]3C[C@@H]4CN(CC5CCOCC5)C[C@@H]4C3)nn2)c1=O [A9, 1-methyl-3-(6-(((3aR,5s,6aS)-2-((tetrahydro-2H-pyran-4-yl)methyl)octahydrocyclopenta[c]pyrrol-5-yl)amino)pyridazin-3-yl)-5-(trifluoromethyl)pyridin-2(1H)-one] | 27.4 | 4
9 | [2H]C([2H])(C1CCOCC1)N1C[C@H]2C[C@H](Nc3ccc(-c4cccn(C)c4=O)nn3)C[C@H]2C1 [A3, 1-methyl-3-(6-(((3aR,5s,6aS)-2-((tetrahydro-2H-pyran-4-yl)methyl-d2)octahydrocyclopenta[c]pyrrol-5-yl)amino)pyridazin-3-yl)pyridin-2(1H)-one] | 5.9 | 4
10 | Cc1cc(-c2ccc(N[C@H]3C[C@@H]4CN(CC5CCOCC5)C[C@@H]4C3)nn2)cn(C)c1=O [A16, 1,3-dimethyl-5-(6-(((3aR,5s,6aS)-2-((tetrahydro-2H-pyran-4-yl)methyl)octahydrocyclopenta[c]pyrrol-5-yl)amino)pyridazin-3-yl)pyridin-2(1H)-one] | 1.9 | 4
11 | [2H]C([2H])(C1CCOCC1)N1C[C@H]2C[C@H](Nc3ccc(-c4ccn(C)c(=O)c4)nn3)C[C@H]2C1 [A1, 1-methyl-4-(6-(((3aR,5s,6aS)-2-((tetrahydro-2H-pyran-4-yl)methyl-d2)octahydrocyclopenta[c]pyrrol-5-yl)amino)pyridazin-3-yl)pyridin-2(1H)-one] | 81 | 5
12 | Cn1cc(-c2ccc(N[C@H]3C[C@@H]4CN(Cc5ccccn5)C[C@@H]4C3)nn2)ccc1=O [A12, 1-methyl-5-(6-(((3aR,5s,6aS)-2-(pyridin-2-ylmethyl)octahydrocyclopenta[c]pyrrol-5-yl)amino)pyridazin-3-yl)pyridin-2(1H)-one] | 762 | 9
13 | [2H]C([2H])(C1CCOCC1)N1C[C@H]2C[C@H](Nc3ccc(-c4cc(F)c(=O)n(C)c4)nn3)C[C@H]2C1 [A18, 3-fluoro-1-methyl-5-(6-(((3aR,5s,6aS)-2-((tetrahydro-2H-pyran-4-yl)methyl-d2)octahydrocyclopenta[c]pyrrol-5-yl)amino)pyridazin-3-yl)pyridin-2(1H)-one] | 11.4 | 4
14 | Cn1cc(-c2ccc(N[C@H]3C[C@@H]4CN(CC5CCCCC5)C[C@@H]4C3)nn2)ccc1=O [A11, 5-(6-(((3aR,5s,6aS)-2-(cyclohexylmethyl)octahydrocyclopenta[c]pyrrol-5-yl)amino)pyridazin-3-yl)-1-methylpyridin-2(1H)-one] | 3.5 | 3
15 | [2H]C([2H])(C1CCOCC1)N1C[C@H]2C[C@H](Nc3ccc(-c4ccc(=O)n(C)c4)nn3)C[C@H]2C1 [A2, 1-methyl-5-(6-(((3aR,5s,6aS)-2-((tetrahydro-2H-pyran-4-yl)methyl-d2)octahydrocyclopenta[c]pyrrol-5-yl)amino)pyridazin-3-yl)pyridin-2(1H)-one] | 34 | 4
16 | Cn1cc(-c2ccc(N[C@H]3C[C@@H]4CN(CC5CCOCC5)C[C@@H]4C3)nn2)cc(F)c1=O [A17, 3-fluoro-1-methyl-5-(6-(((3aR,5s,6aS)-2-((tetrahydro-2H-pyran-4-yl)methyl)octahydrocyclopenta[c]pyrrol-5-yl)amino)pyridazin-3-yl)pyridin-2(1H)-one] | 13 | 3
17 | [2H]C([2H])(C1CCOCC1)N1C[C@H]2C[C@H](Nc3ccc(-c4ccc(=O)n(CC5CC5)c4)nn3)C[C@H]2C1 [A14, 1-(cyclopropylmethyl)-5-(6-(((3aR,5s,6aS)-2-((tetrahydro-2H-pyran-4-yl)methyl-d2)octahydrocyclopenta[c]pyrrol-5-yl)amino)pyridazin-3-yl)pyridin-2(1H)-one] | 28.8 | 3
